# Patent publication US20220162191A1, “SMALL MOLECULE MODULATORS OF IL-17” (LEO PHARMA A/S, priority 2019, published 2022)
# Biological target: T1, human IL-17AA (Homo sapiens, UniProt Q16552)
# T1 construct: host or cells: HEK (human embryonic kidney) cells
# T1 sequence (Q16552 24-155) 1: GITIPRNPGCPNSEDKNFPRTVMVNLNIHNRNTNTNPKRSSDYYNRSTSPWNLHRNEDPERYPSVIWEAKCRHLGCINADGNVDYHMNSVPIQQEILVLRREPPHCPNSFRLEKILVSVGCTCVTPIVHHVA
# T1 sequence (Q16552 24-155) 2: T1 sequence (Q16552 24-155) 1
# Test: IL-8 release assay in human epithelial keratinocytes adult (HEKa)
# Assay type: cell-based
# Settings: 3 ng/ml human IL-17AA + 10 ng/ml human TNFalpha, 68-72 h, IL-8 by HTRF, read-out: Rel EC50 L-8 release assay
# How it was run: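 Adult human keratinocytes in Epilife with HKGS minus hydrocortisone, treated with compound then stimulated with final 3 ng/ml HEK-derived human IL-17AA plus 10 ng/ml TNF-alpha for 68–72 h at 37 °C; TNF-alpha alone defines 100% inhibition. Secreted IL-8 by HTRF; relative IC50 and Emax from four-parameter fits.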
row,SMILES,EC50
1,"Cc1n[nH]cc1-c1ccc(NC(=O)C(NC(=O)OC2CC2)C(c2ccccc2)c2cccc(-c3ccc(=O)n(C(C)C)c3)c2)cc1 (single isomer, unassigned; diastereomer 1) [Example 242, cyclopropyl N-[1-[[3-(1-isopropyl-6-oxo-3-pyridyl)phenyl]-phenyl-methyl]-2-[4-(3-methyl-1H-pyrazol-4-yl)anilino]-2-oxo-ethyl]carbamate (Diastereomer 1)]",> 1000 nM
2,"CCc1cccc(-c2ccc(Cl)c(CC(NC(=O)c3ccnn3C)C(=O)Nc3ccc(-c4nncn4C)cc3)c2)c1 (centres unmarked) [Example 108, N-[1-[[2-chloro-5-(3-ethylphenyl)phenyl]methyl]-2-[4-(4-methyl-1,2,4-triazol-3-yl)anilino]-2-oxo-ethyl]-2-methyl-pyrazole-3-carboxamide]",100 to 1000 nM
3,"Cn1cnnc1-c1ccc(NC(=O)C(Cc2cc(-c3cccc(OC4CCC4)c3)ccc2Cl)NC(=O)c2ccnn2C)cc1 (centres unmarked) [Example 145, N-[1-[[2-chloro-5-[3-(cyclobutoxy)phenyl]phenyl]methyl]-2-[4-(4-methyl-1,2,4-triazol-3-yl)anilino]-2-oxo-ethyl]-2-methyl-pyrazole-3-carboxamide]",100 to 1000 nM
4,"Cc1n[nH]c(C)c1-c1ccc(NC(=O)[C@@H](NC(=O)c2ccnn2C)[C@@H]2CCc3ccc(-c4ccc(CN5CCCC5)cc4)cc32)cc1 [Example 19, N-[(1S)-2-[4-(3,5-dimethyl-1H-pyrazol-4-yl)anilino]-2-oxo-1-[(1R)-6-[4-(pyrrolidin-1-ylmethyl)phenyl]indan-1-yl]ethyl]-2-methyl-pyrazole-3-carboxamide]",100 to 1000 nM
5,"Cc1n[nH]c(C)c1-c1ccc(NC(=O)[C@@H](NC(=O)C2(F)CC2)[C@@H]2CCc3ccc(-n4cnc(C(C)C)c4)cc32)cc1 [Example 360, N-[(1S)-2-[4-(3,5-dimethyl-1H-pyrazol-4-yl)anilino]-1-[(1R)-6-(4-isopropylimidazol-1-yl)indan-1-yl]-2-oxo-ethyl]-1-fluoro-cyclopropanecarboxamide]",100 to 1000 nM
6,"CC(C)n1cc(-c2ccc(Cl)c(CC(NC(=O)c3ccnn3C)C(=O)Nc3ccc(-c4nncn4C)cc3)c2)ccc1=O (centres unmarked) [Example 62, N-[1-[[2-chloro-5-(1-isopropyl-6-oxo-3-pyridyl)phenyl]methyl]-2-[4-(4-methyl-1,2,4-triazol-3-yl)anilino]-2-oxo-ethyl]-2-methyl-pyrazole-3-carboxamide]",> 1000 nM
7,"Cn1cncc1-c1ccc(NC(=O)C(Cc2cc(-c3ccnc(N4CCC4)c3)ccc2Cl)NC(=O)c2ccnn2C)cc1 (centres unmarked) [Example 149, N-[1-[[5-[2-(azetidin-1-yl)-4-pyridyl]-2-chloro-phenyl]methyl]-2-[4-(3-methylimidazol-4-yl)anilino]-2-oxo-ethyl]-2-methyl-pyrazole-3-carboxamide]",100 to 1000 nM
8,"Cn1cnnc1-c1ccc(NC(=O)C(Cc2cc(-c3ccc(O)c(C(=O)N4CCOCC4)c3)ccc2Cl)NC(=O)c2ccnn2C)cc1 (centres unmarked) [Example 296, N-[1-[[2-chloro-5-[4-hydroxy-3-(morpholine-4-carbonyl)phenyl]phenyl]methyl]-2-[4-(4-methyl-1,2,4-triazol-3-yl)anilino]-2-oxo-ethyl]-2-methyl-pyrazole-3-carboxamide]",> 1000 nM
9,"CC(C)n1cc(-c2cccc(C(c3ccccc3)C(NC(=O)c3ccnn3C)C(=O)Nc3ccc(-c4cncn4C)cc3)c2)ccc1=O (single isomer, unassigned) [Example 230, N-[1-[[3-(1-isopropyl-6-oxo-3-pyridyl)phenyl]-phenyl-methyl]-2-[4-(3-methylimidazol-4-yl)anilino]-2-oxo-ethyl]-2-methyl-pyrazole-3-carboxamide]",100 to 1000 nM
10,"CC(C)n1cc(-c2ccc(Cl)c(CC(NC(=O)c3ccnn3C)C(=O)Nc3ccc(-c4cnnn4C)cc3)c2)ccc1=O (centres unmarked) [Example 65, N-[1-[[2-chloro-5-(1-isopropyl-6-oxo-3-pyridyl)phenyl]methyl]-2-[4-(3-methyltriazol-4-yl)anilino]-2-oxo-ethyl]-2-methyl-pyrazole-3-carboxamide]",> 1000 nM
11,"Cc1ncn(C)c1-c1ccc(NC(=O)[C@@H](NC(=O)C2(F)CC2)[C@@H]2CCCc3ccc(-c4ccnc(N5C[C@H]6C[C@@H]5CN6)c4)cc32)cc1 [Example 389, N-[(1S)-1-[(1R)-7-[2-[(1R,4R)-2,5-diazabicyclo[2.2.1]heptan-2-yl]-4-pyridyl]tetralin-1-yl]-2-[4-(3,5-dimethylimidazol-4-yl)anilino]-2-oxo-ethyl]-1-fluoro-cyclopropanecarboxamide]",100 to 1000 nM
12,"Cc1nccn1-c1ccc(NC(=O)[C@@H](NC(=O)C2(F)CC2)[C@@H]2CCCc3ccc(-c4ccnc(N5C[C@@H]6C[C@H]5CO6)c4)cc32)cc1 [Example 400, 1-fluoro-N-[(1S)-2-[4-(2-methylimidazol-1-yl)anilino]-1-[(1R)-7-[2-[(1S,4S)-2-oxa-5-azabicyclo[2.2.1]heptan-5-yl]-4-pyridyl]tetralin-1-yl]-2-oxo-ethyl]cyclopropanecarboxamide]",100 to 1000 nM
13,"Cc1n[nH]c(C)c1-c1ccc(NC(=O)[C@@H](NC(=O)C2(F)CC2)[C@@H]2CCc3ccc(-c4ccc(=O)n(C(C)C)c4)cc32)cc1 [Example 6, N-[(1S)-2-[4-(3,5-dimethyl-1H-pyrazol-4-yl)anilino]-1-[(1R)-6-(1-isopropyl-6-oxo-3-pyridyl)indan-1-yl]-2-oxo-ethyl]-1-fluoro-cyclopropanecarboxamide]",100 to 1000 nM
14,"CC(C)COC(=O)N[C@@H](Cc1cc(-c2ccc(=O)n(C(C)C)c2)ccc1Cl)C(=O)Nc1ccc(-c2nncn2C)cc1 [Example 100, isobutyl N-[(1S)-1-[[2-chloro-5-(1-isopropyl-6-oxo-3-pyridyl)phenyl]methyl]-2-[4-(4-methyl-1,2,4-triazol-3-yl)anilino]-2-oxo-ethyl]carbamate]",100 to 1000 nM

# Next, values leading:
row,EC50,SMILES
1,< 100 nM,"Cc1ncn(C)c1-c1ccc(NC(=O)[C@@H](NC(=O)C2(F)CC2)[C@@H]2CCCc3ccc(-c4ccnc(N5C[C@@H]6C[C@H]5CN6)c4)cc32)cc1 [Example 40, N-[(1S)-1-[(1R)-7-[2-[(1S,4S)-2,5-diazabicyclo[2.2.1]heptan-2-yl]-4-pyridyl]tetralin-1-yl]-2-[4-(3,5-dimethylimidazol-4-yl)anilino]-2-oxo-ethyl]-1-fluoro-cyclopropanecarboxamide]"
2,< 100 nM,"C[C@@H]1CNCCN1c1cc(-c2ccc(Cl)c(C[C@H](NC(=O)c3ccnn3C)C(=O)Nc3ccc(-c4cncn4C)cc3)c2)ccn1 [Example 207, N-[(1S)-1-[[2-chloro-5-[2-[(2R)-2-methylpiperazin-1-yl]-4-pyridyl]phenyl]methyl]-2-[4-(3-methylimidazol-4-yl)anilino]-2-oxo-ethyl]-2-methyl-pyrazole-3-carboxamide]"
3,< 100 nM,"Cc1cnn(C)c1-c1ccc(NC(=O)[C@@H](NC(=O)c2ccnn2C)[C@@H](c2cccc(-c3cncc(N4C[C@@H]5C[C@H]4CO5)n3)c2)C2CC2)cc1 [Example 349, N-[(1S)-1-[(R)-cyclopropyl-[3-[6-[(1S,4S)-2-oxa-5-azabicyclo[2.2.1]heptan-5-yl]pyrazin-2-yl]phenyl]methyl]-2-[4-(2,4-dimethylpyrazol-3-yl)anilino]-2-oxo-ethyl]-2-methyl-pyrazole-3-carboxamide]"
4,< 100 nM,"Cc1n[nH]c(C)c1-c1ccc(NC(=O)[C@@H](NC(=O)C2(F)CC2)[C@@H]2CCc3ccc(-c4ccnc(N5CCNCC5)c4)cc32)cc1 [Example 9, N-[(1S)-2-[4-(3,5-dimethyl-1H-pyrazol-4-yl)anilino]-2-oxo-1-[(1R)-6-(2-piperazin-1-yl-4-pyridyl)indan-1-yl]ethyl]-1-fluoro-cyclopropanecarboxamide]"
5,< 100 nM,"Cc1ncn(C)c1-c1ccc(NC(=O)[C@H](Cc2cc(-c3ccnc(N4CCOCC4)c3)ccc2Cl)NC(=O)C2(F)CC2)cc1 [Example 224, N-[(1S)-1-[[2-chloro-5-(2-morpholino-4-pyridyl)phenyl]methyl]-2-[4-(3,5-dimethylimidazol-4-yl)anilino]-2-oxo-ethyl]-1-fluoro-cyclopropanecarboxamide]"
6,< 100 nM,"Cc1n[nH]c(C)c1-c1ccc(NC(=O)[C@H](Cc2cc(-c3ccnc(N4CCSCC4)n3)ccc2Cl)NC(=O)C2(F)CC2)cc1 [Example 314, N-[(1S)-1-[[2-chloro-5-(2-thiomorpholinopyrimidin-4-yl)phenyl]methyl]-2-[4-(3,5-dimethyl-1H-pyrazol-4-yl)anilino]-2-oxo-ethyl]-1-fluoro-cyclopropanecarboxamide]"
7,< 100 nM,"Cc1n[nH]c(C)c1-c1ccc(NC(=O)[C@@H](NC(=O)C2(F)CC2)[C@@H]2CCCc3ccc(-c4ccc(=O)n(C(C)C)c4)cc32)cc1 [Example 27, N-[(1S)-2-[4-(3,5-dimethyl-1H-pyrazol-4-yl)anilino]-1-[(1R)-7-(1-isopropyl-6-oxo-3-pyridyl)tetralin-1-yl]-2-oxo-ethyl]-1-fluoro-cyclopropanecarboxamide]"
8,< 100 nM,"Cc1cc(-c2ccc3c(c2)[C@H]([C@H](NC(=O)c2ccnn2C)C(=O)Nc2ccc(-c4c(C)n[nH]c4C)cc2)CC3)ccc1CN1CCOCC1 [Example 18, N-[(1S)-2-[4-(3,5-dimethyl-1H-pyrazol-4-yl)anilino]-1-[(1R)-6-[3-methyl-4-(morpholinomethyl)phenyl]indan-1-yl]-2-oxo-ethyl]-2-methyl-pyrazole-3-carboxamide]"
9,< 100 nM,"Cc1cnn(C)c1-c1ccc(NC(=O)[C@@H](NC(=O)C2(F)CC2)[C@@H](c2cccc(-c3cncc(N4C[C@@H]5C[C@H]4CO5)c3)c2)C2CC2)cc1 [Example 347, N-[(1S)-1-[(R)-cyclopropyl-[3-[5-[(1S,4S)-2-oxa-5-azabicyclo[2.2.1]heptan-5-yl]-3-pyridyl]phenyl]methyl]-2-[4-(2,4-dimethylpyrazol-3-yl)anilino]-2-oxo-ethyl]-1-fluoro-cyclopropanecarboxamide]"
